The values that follow are results of earlier work, collected in patent US20060134172A1, “Agents which regulate, inhibit, or modulate the activity and/or expression of lysyl oxidase (LOX) and LOX-like proteases as a unique means to both lower intraocular pressure and treat glaucomatous retinopathies/optic neuropathies” (Alcon, Inc., priority 2004, published 2006).

In this data set the target is T1, lysyl oxidase (Homo sapiens, UniProt P28300).
T1 sequence (P28300 169-417): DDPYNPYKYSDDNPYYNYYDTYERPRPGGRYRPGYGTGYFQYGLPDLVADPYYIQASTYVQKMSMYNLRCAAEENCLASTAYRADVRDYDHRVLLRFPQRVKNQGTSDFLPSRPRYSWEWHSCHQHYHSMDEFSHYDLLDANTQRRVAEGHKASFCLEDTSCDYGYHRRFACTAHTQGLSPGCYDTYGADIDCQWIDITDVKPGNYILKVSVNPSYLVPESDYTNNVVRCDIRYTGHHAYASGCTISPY
The conditions noted are these: known from U.S. Pat. No. 4,444,787.

Structures are written as SMILES.

Take `N#CCCN` [β-aminopropionitrile (BAPN), β-aminopropionitrile]: the “in vitro inhibition of lysyl oxidase” value is recorded as “inhibition”.
